From patent EP4813999A1, “NOVEL PEPTIDE DERIVATIVE AND PHARMACEUTICAL COMPOSITION FOR PREVENTING OR TREATING MACULAR DEGENERATION COMPRISING SAME” (Supadelixir Inc., priority 2023, dated 2026)

Assays:
HUVECs = experiment: VEGF-induced chemotactic cell migration (transwell chamber); assay type: cell-based, human; details: VEGF 10 ng/ml, test substance 0.1, 1, 10, 100 nM, 3 hours
Method: The experiment was conducted by dividing the groups into an untreated group, a group treated with VEGF alone, and a group co-treated with VEGF and the test substance (SE101B2L).
In addition, whether the test substance could inhibit VEGF-induced changes in cell migration ability in HUVECs was confirmed. In terms of cell migration ability, changes in chemotactic cell migration were confirmed using a transwell chamber (24-well plate type). After coating the lower surface of a transwell insert membrane having a diameter of 6.5 mm and a pore size of 8.0 µm with 10 µg of gelatin, 5 × 10^4 cultured HUVECs were seeded into the inserts using 0.1 ml of HUVEC basal medium. The test substance was added to each test substance-treated group to final concentrations of 0.1, 1, 10, and 100 nM, and VEGF, together with HUVEC basal medium, was added to the lower wells configured in a 24-well plate format to a final concentration of 10 ng/ml, followed by incubation in an incubator with 5% CO2 at 37°C for 3 hours. Thereafter, the medium was removed from the inserts of the test groups, and the inserts were fixed using a 10% formalin solution. […] Migrated cells in each test group were photographed, and the number of cells was counted. The number of counted cells was converted to values relative to that of the untreated group, thereby calculating the results.

ARPE19 cells = experiment: Cell viability under hydrogen peroxide-induced oxidative stress (CCK-8); assay type: cell-based, Human; details: 400 µM hydrogen peroxide, test substance 0.01, 0.1, 1, 2 µM, 24 hours
Method: Human retinal pigment epithelial cells (ARPE19) were cultured in a humidified incubator with 5% CO2 at 37°C. DMEM/F12 (Gibco) containing 10% fetal bovine serum and penicillin (100 U/ml)/streptomycin ([…]) was used as medium. The cells were cultured with the medium replaced with fresh medium every other day and were passaged using 0.25% trypsin containing 0.02% ethylenediaminetetraacetic acid (EDTA).
After oxidative stress was induced in human retinal pigment epithelial cells using hydrogen peroxide (H2O2), the test substance (SE101B2L) was added at varying concentrations to confirm changes in cell viability. CCK-8 was used to confirm cell viability.
ARPE19 cells were seeded into a 96-well plate at 1 × 10^4 cells/well and cultured in an incubator for 24 hours. The test substance was added to each treatment group at concentrations of 0, 0.01, 0.1, 1, and 2 µM, together with 400 µM hydrogen peroxide, followed by incubation for 24 hours. […] After incubation, a 96-well plate containing 90 µL of cell suspension per well was inoculated with 10 µL of ready-to-use CCK-8 solution. The plate was incubated for 2 hours, and the OD450 of the supernatant was measured to confirm cell viability through quantification.

[1] = system: CNV-induced male chinchilla rabbits; experiment: Macular degeneration animal model: laser-induced CNV, retinal fluorescein fundus imaging; assay type: in vivo; details: instillation 50 µL twice daily, Day 7 and Day 14, versus induced control group (G1)
Text: As a macular degeneration animal model, CNV-induced male chinchilla rabbits were used. The efficacy test using the CNV animal model was commissioned to HLB Biostep Co., Ltd. (formerly Notus Co., Ltd.). In order to induce CNV formation, a mydriatic agent (Mydriacyl 1% eye drops) was instilled into the right eye of each chinchilla rabbit, followed by anesthesia. Thereafter, the right eye was irradiated using a laser (LIGHTLas 532, LIGHTMED, USA) under conditions of a wavelength of 532 nm and a power of 150 mW for 0.1 seconds, thereby creating six wounds in the 6 o'clock direction centered on the optic nerve.
An induced control group (G1) was repeatedly administered 0.9% aqueous sodium chloride solution (vehicle) by instillation twice daily. […]
After initiation of administration to each group, a mydriatic agent (Mydriacyl 1% eye drops) was instilled into the right eye of each animal on Day 0, Day 7, and Day 14, followed by anesthesia. […] Confirmation of retinal CNV and evaluation of pharmacological efficacy were performed using retinal fluorescein fundus images, and image analysis was performed using the ImageJ software (NIH, Bethesda, MD) to analyze fluorescence intensity at irradiated sites.
Assuming normality for the results of the present test, significance between test groups was analyzed using parametric one-way analysis of variance (one-way ANOVA). […]

Which “cell migration ability (number of migrated cells)” value (HUVECs) does the source give for “decylbenzoyl-Cys-Phe-Lys-amide [SE101B2L]” here?
The value was “reduced by the test substance in a concentration-dependent manner”.

And the cell viability (ARPE19 cells)?
Its cell viability is “increases cell viability in a concentration-dependent manner”.

And the retinal fluorescence intensity ([1]; G3: 3750 ppm)?
Its retinal fluorescence intensity is “statistically significantly lower than those in the induced control group (G1) (p < 0.001)”.

What about the retinal fluorescence intensity ([1]; G4: 187.5 ppm) of the same substance?
Its retinal fluorescence intensity is “statistically significantly lower than those in the induced control group (G1) (p < 0.001)”.
